Patent US10662445B2, “Process for the production of bio-butanol by fermentation of glycosidic waste matter” (priority 2018, dated 2020)

Assays:
[1] = Organic-solvent extraction of microbial inhibitors from an agro-waste hydrolysate mimic; type: physicochemical; conditions: for HMF remaining after extraction: standard 2.723 g/L; for Furfural remaining after extraction: standard 2.956 g/L; for TRS (total reducing sugar) after extraction: standard 52.00 g/L; for Inhibitor extraction, phase separation by centrifugal force / Inhibitor extraction, phase separation by separating funnel: solvent bis-(2-ethylhexyl) sebacate
From the text: Media composition was designed according to the inhibitory compound limit concentration reported in the literature for bio-butanol producing solventogenic Clostridia (Baral et al. Microbial inhibitors: formation and effects on acetone-butanol-ethanol fermentation of lignocellulosic biomass. Applied microbiology and biotechnology, Vol. 98(22), 2014: 9151-9172; Qureshi et al. Production of butanol (a biofuel) from agricultural residues: Part I—Use of barley straw hydrolysate. Biomass and bioenergy, Vol. 34(4), 2010: 559-565). Different volume ratio of the hydrolysate mimic and organic solvents, such as (5:1), (3:1), (2:1), (1:1) and (1:2) (vaqueous:vorganic) were tried in order to minimize extractant expenditure. Organic and aqueous phase mixing was carried out by a propeller impeller. Rotation rate (100, 200, 250, 300 and 400 rpm) and operation-time (15, 30, 45, 60 and 90 min) were tested at room temperature (25° C.). A comparative study between settling through separating funnel vs. centrifugal force assisted separation was also made to guarantee an optimal recovery of the broth phase.
A complex mixture of several reduced sugar compounds (e.g. as glucose, fructose, and xylose) and microbial inhibitors (furfural, HMF, acetic acid, levulinic acid, vanillin, vanillic acid, feluric acid and syringaldehyde) were produced during the pretreatment step (hydrolysis). In order to analyse these compounds, liquid samples were collected and analyzed using liquid chromatography-mass spectrometry (LC-MS) and liquid chromatography-tandem mass spectrometry (LC/MS-MS) equipped with a ZORBAX Carbohydrate column (5 μm, 150×4.6 mm ID column) (Agilent Technologies, USA) with D6 glucose as the internal standard and a Biobasic-18 column (5 μm, 250×4.6 mm ID) (Agilent Technologies, USA) with phenylethanol-D5 as the internal standard. […] Methanol water (8:2) and acetonitrile water (8.5:1.5) were used to dilute the sample before inhibitor and carbohydrate analysis. […]

[2] = test system: Clostridium acetobutylicum NRRL B-582 (ATCC-824) (CA); experiment: Bio-compatibility (solvent toxicity) batch ABE fermentation, CA; conditions: CA
Method: (§1) Clostridium acetobutylicum NRRL B-582 (ATCC-824) (CA) and Clostridium beijerinckii NRRL B-466(CB) were considered for current investigation to produce bio-butanol from different brewery industry wastes. They were kindly provided by Agricultural Research Station, USDA (USA). The microorganisms were grown and maintained in peptone-yeast extract-glucose (PYG) media under anaerobic condition (vegetative growth) at 37±1° C. and 150 rpm for 24 h and 17 h, respectively, before being transferred into the fermentation medium. The medium (g L^−1) comprised: glucose (10); yeast extract (10); peptone (5); tryptone (5); cysteine-HCl (0.5); K2HPO4 (2.04); KH2PO4 (0.04); FeSO4*7H2O (1.1×10^−3); CaCl2 (8×10^−3); MgSO4*7H2O (0.0192); NaCl (0.08); and NaHCO3 (0.4). 125 mL serum bottles (working volume 50 mL) were used for both butanol production and inoculum development (Maiti et al., January 2016, Maiti et al., August 2015). Anaerobic conditions were maintained within the bottle by sparging N2 for 10 minutes and immediately sealed by an aluminum crimp seal containing silicone septum (Fisher scientific, Canada) by means of a hand operated crimper (E-Z Crimper™, VWR, Ontario, Canada). Prior to culture development, the medium was sterilized for 20 min at 121±1° C. About 10% (v/v) (dry cell weight […]) of microbial culture in its exponential phase of growth (OD600nm=1.3-1.5) was used as inoculum for all the experiments conducted in this investigation.
(§2) Set-1, set-4 and set-5 were included as control-1, control-2 and control-3 respectively. All the experiments were carried out in P2 nutrient media as described later in batch fermentation section.
(§3) Batch fermentation was performed in 125 mL serum vials (working volume of 50 mL) at pH 6.7±0.1. The P2 medium was sterilized at 121±1° C. for 20 min. Prior to fermentation, anaerobic conditions for each bottle were maintained by sparging the medium with N2 for 10 minutes and immediately closing with an aluminum crimp seal containing silicon septum (Fisher scientific, Canada) by means of a hand-operated crimper (E-Z Crimper™, VWR, Ontario, Canada). A modified P2 medium, with the following composition, was used for fermentation experiments: Buffer→KH2PO450 g/L, K2HPO450 g/L, ammonium acetate 220 g/L; Minerals→MgSO4*7H2O 20 g/L, MnSO4*H2O 1 g/L, FeSO4*7H2O 1 g/L, NaCl 1 g/L; Vitamins→thiamin 0.1 g/L, biotin 0.001 g/L). Since brewery industry wastes were already enriched with yeast protein, no additional yeast protein nor peptone were supplemented.
(§4) The fermentation was initiated by inoculating the P2 medium with the seed cultures at a ratio of 10% (v:v). […] Fermentation experiments were performed at 37±1° C. with shaking at 150 rpm for 72 h in duplicates. 1 mL of culture broth from each batch assay was used for metabolite analysis. Data described here present average values from duplicate runs for duplicate samples.
(§5) To determine the different metabolites produced during ABE fermentation (i.e. butanol, ethanol, acetone, butyric acid, and acetic acid) liquid samples from each fermentation broth were collected and analyzed using gas chromatography (GC) (GC7890B, Agilent Technologies, USA) equipped with a FID detector and a HP-INNOWax™ column (30 m, 0.25 mm ID, 0.25 μm df). Isobutanol was used as the internal standard. Before injecting the sample (1 mL) in the GC for products analysis, the sample was centrifuged for 5 minutes at 7650×g and the supernatant was filtered by 0.45 μm syringe filter. The GC conditions comprised: helium carrier gas at a flow rate of 1 mL/min with a temperature ramp from the initial temperature of 50° C. to 150° C.

[3] = test system: Clostridium beijerinckii NRRL B-466 (CB); experiment: Bio-compatibility (solvent toxicity) batch ABE fermentation, CB
Method: as §1, §2, §3, §4, §5

[4] = Extraction 1, Vaqueous:Vorganic = 2:1, hydrolysate mimic
[5] = Extraction 1, Vaqueous:Vorganic = 2:1, hydrolysate mimic, standard 565.9 mg/L
[6] = Extraction 2, Vaqueous:Vorganic = 2:1, hydrolysate mimic
[7] = Extraction 3, Vaqueous:Vorganic = 2:1, hydrolysate mimic
[8] = Extraction 4, Vaqueous:Vorganic = 2:1, hydrolysate mimic
[9] = first stage, ratio 2:1, hydrolysate mimic
[10] = (5-15%) solvent supplemented to 52 g/L glucose
[11] = Control-1 (52 g/L glucose) + (5-15)% solvent, 72 h, P2 medium
[12] = homogenizer rotational speed 100 rpm
[13] = homogenizer rotational speed 200 rpm
[14] = homogenizer rotational speed 250 rpm
[15] = homogenizer rotational speed 300 rpm
[16] = homogenizer rotational speed 400 rpm

Which results are given for `CCCCCCCCCC(C)=O` [2-undecanone]?
Ferulic acid removal [1, 4]: 99%; Furfural removal [1, 4]: 87%; HMF removal [1, 4]: 90%; Syringaldehyde removal [1, 4]: 97%; TRS removal [1, 4]: 0%; Vanillic acid removal [1, 4]: 95%; Vanillin removal [1, 4]: 98%; Syringaldehyde remaining after extraction ([1]; Extraction 1, Vaqueous:Vorganic = 2:1, hydrolysate mimic, standard 300.2 mg/L): 7.6 mg/L; Ferulic acid remaining after extraction ([1]; Extraction 1, Vaqueous:Vorganic = 2:1, hydrolysate mimic, standard 485.6 mg/L): 0.7 mg/L; Vanillic acid remaining after extraction [1, 5]: 9.8 mg/L; Vanillin remaining after extraction [1, 5]: 10.3 mg/L; HMF remaining after extraction [1, 4]: 0.267 g/L; Furfural remaining after extraction [1, 4]: 0.392 g/L; TRS (total reducing sugar) after extraction [1, 4]: 52.00 g/L; Ferulic acid removal [1, 6]: 100%; Furfural removal [1, 6]: 97%; HMF removal [1, 6]: 97%; Syringaldehyde removal [1, 6]: 100%; TRS removal [1, 6]: 0%; Vanillic acid removal [1, 6]: 100%; Vanillin removal [1, 6]: 100%; HMF remaining after extraction [1, 6]: 0.077 g/L; Furfural remaining after extraction [1, 6]: 0.082 g/L; TRS (total reducing sugar) after extraction [1, 6]: 52.00 g/L; Ferulic acid removal [1, 7]: 100%; Furfural removal [1, 7]: 100%; HMF removal [1, 7]: 100%; Syringaldehyde removal [1, 7]: 100%; TRS removal [1, 7]: 0%; Vanillic acid removal [1, 7]: 100%; Vanillin removal [1, 7]: 100%; TRS (total reducing sugar) after extraction [1, 7]: 52.00 g/L; Ferulic acid removal [1, 8]: 100%; Furfural removal [1, 8]: 100%; HMF removal [1, 8]: 100%; Syringaldehyde removal [1, 8]: 100%; TRS removal [1, 8]: 0%; Vanillic acid removal [1, 8]: 100%; Vanillin removal [1, 8]: 100%; TRS (total reducing sugar) after extraction [1, 8]: 52.00 g/L; Extraction efficiency for phenolic compounds [1, 9]: higher than 95%; Extraction efficiency towards furan derivatives [1, 9]: 87-90%; Reduction of bio-butanol generation in comparison with set-1 [2, 10]: 70%; ABE [2, 11]: 3.82 ± 0.2 g/L; Butanol [2, 11]: 2.77 ± 0.12 g/L; Reduction of bio-butanol generation in comparison with set-1 [3, 10]: 67%; ABE [3, 11]: 4.28 ± 0.4 g/L; Butanol [3, 11]: 3.11 ± 0.3 g/L

Which “Inhibitor extraction, phase separation by centrifugal force” value [1, 12] does the source give for `O=Cc1ccco1` [Furfural, furfural] here?
Its value is 68%.

What about the “Inhibitor extraction, phase separation by separating funnel” value [1, 12] of the same molecule?
The value was 65%.

And the “Inhibitor extraction, phase separation by centrifugal force” value [1, 13]?
Its value is 69%.

What about the “Inhibitor extraction, phase separation by separating funnel” value [1, 13] of the same molecule?
The value was 68%.

And the “Inhibitor extraction, phase separation by centrifugal force” value [1, 14]?
Its value is 78%.

And the “Inhibitor extraction, phase separation by separating funnel” value [1, 14]?
The value was 75%.

What about the “Inhibitor extraction, phase separation by centrifugal force” value [1, 15] of the same molecule?
Its value is 78%.

And the “Inhibitor extraction, phase separation by separating funnel” value [1, 15]?
The value was 76%.

And the “Inhibitor extraction, phase separation by centrifugal force” value [1, 16]?
Its value is 80%.

And the “Inhibitor extraction, phase separation by separating funnel” value [1, 16]?
Its value is 78%.

Which results are given for `O=Cc1ccc(CO)o1` [HMF, hydroxymethyl furfural]?
Inhibitor extraction, phase separation by centrifugal force [1, 12]: 71%; Inhibitor extraction, phase separation by separating funnel [1, 12]: 71%; Inhibitor extraction, phase separation by centrifugal force [1, 13]: 74%; Inhibitor extraction, phase separation by separating funnel [1, 13]: 73%; Inhibitor extraction, phase separation by centrifugal force [1, 14]: 79%; Inhibitor extraction, phase separation by separating funnel [1, 14]: 78%; Inhibitor extraction, phase separation by centrifugal force [1, 15]: 82%; Inhibitor extraction, phase separation by separating funnel [1, 15]: 80%; Inhibitor extraction, phase separation by centrifugal force [1, 16]: 84%; Inhibitor extraction, phase separation by separating funnel [1, 16]: 80%

With `COc1cc(C=O)ccc1O` [Vanillin, vanillin] as the molecule, how does the “Inhibitor extraction, phase separation by centrifugal force” value [1, 12] read?
The value was 95%.

What about the “Inhibitor extraction, phase separation by separating funnel” value [1, 12] of the same molecule?
The value was 93%.

What about the “Inhibitor extraction, phase separation by centrifugal force” value [1, 13] of the same molecule?
The value was 95%.

What about the “Inhibitor extraction, phase separation by separating funnel” value [1, 13] of the same molecule?
Its value is 93%.

And the “Inhibitor extraction, phase separation by centrifugal force” value [1, 14]?
The value was 97%.

What about the “Inhibitor extraction, phase separation by separating funnel” value [1, 14] of the same molecule?
The value was 95%.

And the “Inhibitor extraction, phase separation by centrifugal force” value [1, 15]?
The value was 97%.

What about the “Inhibitor extraction, phase separation by separating funnel” value [1, 15] of the same molecule?
The value was 97%.

What about the “Inhibitor extraction, phase separation by centrifugal force” value [1, 16] of the same molecule?
Its value is 96%.

And the “Inhibitor extraction, phase separation by separating funnel” value [1, 16]?
Its value is 97%.
